Drawing on patent US8227422B2, “Peptides and compounds that bind to a receptor” (Glaxosmithkline LLC, priority 1996, dated 2012), this text covers EC50 and IC50 for nine compounds.

Like-named read-outs stand apart in the source and are kept apart here. Where a SMILES comes first, the peptide text is derived from it.

In assay [1] the target is T1, human TPO-R (transfected Ba/F3 cells) (Homo sapiens, UniProt P40238).
T1 construct: Murine IL-3 dependent Ba/F3 cells were transfected with full length human TPO-R; expressed in transfected cells; host or cells: murine Ba/F3 cells
T1 sequence (P40238 26-635): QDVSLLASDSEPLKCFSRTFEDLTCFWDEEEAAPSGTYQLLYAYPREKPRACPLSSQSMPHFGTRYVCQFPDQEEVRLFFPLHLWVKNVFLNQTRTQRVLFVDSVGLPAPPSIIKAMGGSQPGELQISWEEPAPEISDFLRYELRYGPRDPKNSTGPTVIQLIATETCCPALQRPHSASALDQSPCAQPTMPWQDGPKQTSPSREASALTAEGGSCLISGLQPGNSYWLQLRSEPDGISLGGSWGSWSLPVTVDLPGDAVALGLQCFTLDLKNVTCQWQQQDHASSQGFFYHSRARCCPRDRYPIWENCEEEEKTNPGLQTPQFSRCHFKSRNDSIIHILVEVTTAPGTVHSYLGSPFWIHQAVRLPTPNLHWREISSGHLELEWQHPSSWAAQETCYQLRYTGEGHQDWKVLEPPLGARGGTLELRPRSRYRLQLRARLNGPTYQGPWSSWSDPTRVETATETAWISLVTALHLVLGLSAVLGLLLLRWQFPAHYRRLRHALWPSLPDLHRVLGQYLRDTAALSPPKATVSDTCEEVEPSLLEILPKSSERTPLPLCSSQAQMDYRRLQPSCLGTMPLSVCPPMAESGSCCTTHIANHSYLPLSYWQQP
In words: Thrombopoietin dependent cell proliferation assay (MTT), TPO-R transfected Ba/F3 cells. The assay is classed as cell-based.
Experimental: Bioactivity of the peptides can be measured using a thrombopoietin dependent cell proliferation assay. Murine IL-3 dependent Ba/F3 cells were transfected with full length human TPO-R. In the absence of IL-3 (WEHI-3 conditioned media), these cells are dependent on TPO for proliferation.
The cells were grown in complete RPMI-10 media, containing 10% WEHI-3 conditioned media, then washed twice in PBS, resuspended in media which lacked WEHI-3 conditioned media, and added to wells containing dilutions of peptide or TPO at 2×10^4 cells/well. The cells were incubated for 48 hours at 37° C. in a humidified 5% CO2 atmosphere and metabolic activity was assayed by the reduction of MTT to formazan, with absorbance at 570 nm measured on an ELISA plate reader.

The next assay has as its target T2, TPO receptor (Homo sapiens, UniProt P40238).
T2 sequence (P40238 26-635): T1 sequence (P40238 26-635)
Briefly: Microphysiometer assay: rate of acidification of extracellular medium on TPO receptor stimulation. Type of assay: cell-based.

Another assay concerns the target T3, TPO-R (Homo sapiens, UniProt P40238).
T3 construct: made in house
T3 sequence (P40238 26-491 limits assumed): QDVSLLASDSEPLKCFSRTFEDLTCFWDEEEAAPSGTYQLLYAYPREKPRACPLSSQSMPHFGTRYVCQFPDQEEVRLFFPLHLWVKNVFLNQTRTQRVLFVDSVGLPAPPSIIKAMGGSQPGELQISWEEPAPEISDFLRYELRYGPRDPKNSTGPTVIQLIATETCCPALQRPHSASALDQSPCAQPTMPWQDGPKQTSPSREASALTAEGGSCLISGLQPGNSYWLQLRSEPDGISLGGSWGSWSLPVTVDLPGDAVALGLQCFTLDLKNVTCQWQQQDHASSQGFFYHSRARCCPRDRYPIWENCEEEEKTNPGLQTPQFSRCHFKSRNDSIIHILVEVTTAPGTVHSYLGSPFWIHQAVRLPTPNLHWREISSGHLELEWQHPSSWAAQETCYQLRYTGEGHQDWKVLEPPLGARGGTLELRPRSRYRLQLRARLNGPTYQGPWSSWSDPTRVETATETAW
In words: Competition binding assay (equilibrium binding ELISA, MBP-TPO156 tracer) on immobilized TPO-R. The conditions noted are these: Table 5; read-out: IC50. On the procedure: A variety of methods can be used to evaluate IC50 values. For example, an equilibrium binding ELISA assay, using either MBP-TPO or lacI-peptide tracer, was used to determine whether the peptides inhibit the binding of TPO to the extracellular domain of the TPO receptor. Typically, the IC50 value were determined using the free peptide. The IC50 value can be determined using the free peptide, which optionally can be C-terminally amidated, or can be prepared as an ester or other carboxy amide.
Binding affinities of chemically synthesized peptides for TPO-R were measured in a competition binding assay. The wells of a microtiter plate were coated with 1 mg streptavidin, blocked with PBS/1% BSA, followed by 50 ng of biotinylated anti-receptor immobilizing antibody (Ab179). The wells were then treated with a 1:10 dilution of soluble TPO-R harvest. Various concentrations of peptide or peptide mimetic were mixed with a constant amount of a truncated form of TPO consisting of residues 1-156 fused to the C-terminus of maltose binding protein (MBP-TPO156). The peptide MBP-TPO156 mixtures were added to the TPO-R coated wells, incubated for 2 hours at 4° C. and then washed with PBS. The amount of MBP-TPO156 that was bound at equilibrium was measured by adding a rabbit anti-sera directed against MBP, followed by alkaline phosphatase conjugated goat anti-rabbit IgG. The amount of alkaline phosphatase in each well was then determined using standard methods.
The assay is conducted over a range of peptide concentrations and the results are graphed such that the y axis represents the amount of bound MBP-TPO156 and the x axis represents the concentration of peptide or peptide mimetic.

Where [2] appears, read: Table 4, cyclized compounds, read-out: EC50 (nM) Proliferation.
The mark [3] stands for this setting: Table 4, cyclized compounds, microphysiometer, read-out: EC50 (nM) Microonys.

One may read the IC50 as the midpoint of a concentration-inhibition curve.

Experimental for TPO receptor: In this example cyclized compounds were subjected to three assays. […] Finally, a microphysiometer (Molecular Devices Corp.) assay was performed. […] The ranges for EC50 are symbolically indicated as for IC50 described above.

Regarding `CCCC1SC[C@@H](C(N)=O)NC(=O)[C@H](Cc2ccccc2)NC(=O)[C@H](CO)NC(=O)[C@H]([C@@H](C)CC)NC(=O)[C@H](Cc2c[nH]c3ccccc23)NC(=O)[C@H](CCC(=O)O)NC(=O)[C@H](CCCNC(=N)N)NC(=O)[C@H](CC(C)C)NC(=O)[C@H]([C@@H](C)O)NC(=O)[C@@H]2CCCN2C(=O)CNC(=O)[C@H](CC(=O)O)NC(=O)[C@H](C)NC1=O` (stereo partly shown) (HELM PEPTIDE1{A.D.G.P.T.L.R.E.W.I.S.F.C.[am]}|CHEM1{[CCCC(C(=O)[*:1])[*:2]]}$PEPTIDE1,CHEM1,1:R1-1:R1|PEPTIDE1,CHEM1,13:R3-1:R2$$$V2.0), the results for the EC50 (in assay [1] (setting [2]); on TPO receptor (setting [3])) were less than 500 nM and less than 200000 nM, respectively.
Taken in the same sequence, the figures for `CC[C@H](C)[C@@H]1NC(=O)[C@H](Cc2c[nH]c3ccccc23)NC(=O)[C@H](CCC(=O)O)NC(=O)[C@H](CCCNC(=N)N)NC(=O)[C@H](CC(C)C)NC(=O)[C@H]([C@@H](C)O)NC(=O)[C@@H]2CCCN2C(=O)CNC(=O)[C@H](CC(=O)O)NC(=O)[C@H](C)NC(=O)[C@@H](N)CCC(=O)NCCCC[C@@H](C(N)=O)NC(=O)[C@H](Cc2ccccc2)NC(=O)[C@H](CO)NC1=O` (HELM PEPTIDE1{E.A.D.G.P.T.L.R.E.W.I.S.F.K.[am]}$PEPTIDE1,PEPTIDE1,1:R3-14:R3$$$V2.0) were less than 200000 nM and less than 200000 nM.
Taken in the same sequence, the figures for `CC[C@H](C)[C@@H]1NC(=O)[C@H](Cc2c[nH]c3ccccc23)NC(=O)[C@H](CCC(=O)O)NC(=O)[C@H](CCCNC(=N)N)NC(=O)[C@H](CC(C)C)NC(=O)[C@H]([C@@H](C)O)NC(=O)[C@@H]2CCCN2C(=O)CNC(=O)[C@H](CC(=O)O)NC(=O)[C@H](C)NC(=O)[C@@H](N)CCCCNC(=O)CC[C@@H](C(N)=O)NC(=O)[C@H](Cc2ccccc2)NC(=O)[C@H](CO)NC1=O` (HELM PEPTIDE1{K.A.D.G.P.T.L.R.E.W.I.S.F.E.[am]}$PEPTIDE1,PEPTIDE1,1:R3-14:R3$$$V2.0) were less than 200000 nM and less than 200000 nM.
Take `CC(C)C[C@H](NC(=O)[C@H](Cc1c[nH]c2ccccc12)NC(=O)[C@H](CCC(N)=O)NC(=O)[C@H](CCCNC(=N)N)NC(=O)[C@H](CC(C)C)NC(=O)[C@@H](NC(=O)[C@@H]1CCCN1C(=O)CNC(=O)[C@H](CSSC[C@H](NC(=O)[C@H](CCC(N)=O)NC(=O)[C@@H](NC(=O)[C@@H](N)CO)C(C)C)C(=O)NCC(=O)N1CCC[C@H]1C(=O)N[C@H](C(=O)N[C@@H](CC(C)C)C(=O)N[C@@H](CCCNC(=N)N)C(=O)N[C@@H](CCC(N)=O)C(=O)N[C@@H](Cc1c[nH]c2ccccc12)C(=O)N[C@@H](CC(C)C)C(=O)N[C@@H](C)C(=O)N[C@@H](C)C(=O)N[C@@H](CCCNC(=N)N)C(=O)N[C@@H](CC(N)=O)C(=O)N[C@@H](Cc1c[nH]cn1)C(=O)N[C@@H](CC(C)C)C(=O)N[C@@H](CO)C(N)=O)[C@@H](C)O)NC(=O)[C@H](CCC(N)=O)NC(=O)[C@@H](NC(=O)[C@@H](N)CO)C(C)C)[C@@H](C)O)C(=O)N[C@@H](C)C(=O)N[C@@H](C)C(=O)N[C@@H](CCCNC(=N)N)C(=O)N[C@@H](CC(N)=O)C(=O)N[C@@H](Cc1c[nH]cn1)C(=O)N[C@@H](CC(C)C)C(=O)N[C@@H](CO)C(N)=O` (HELM PEPTIDE1{S.V.Q.C.G.P.T.L.R.Q.W.L.A.A.R.N.H.L.S.[am]}|PEPTIDE2{S.V.Q.C.G.P.T.L.R.Q.W.L.A.A.R.N.H.L.S.[am]}$PEPTIDE1,PEPTIDE2,4:R3-4:R3$$$V2.0; bridges inferred): the EC50 is less than 500 nM in assay [1] (Table 7, dimer compounds, read-out: EC50 (nM) Prolif.) and less than 500 nM at TPO receptor (Table 7, dimer compounds, read-out: EC50 (nM) Microonys.).
As to `CC[C@H](C)[C@@H]1NC(=O)[C@H](Cc2c[nH]c3ccccc23)NC(=O)[C@H](CCC(=O)O)NC(=O)[C@H](CCCNC(=N)N)NC(=O)[C@H](CC(C)C)NC(=O)[C@H]([C@@H](C)O)NC(=O)[C@@H]2CCCN2C(=O)CNC(=O)[C@H](CC(=O)O)NC(=O)[C@H](C)NC(=O)[C@@H](N)CCSSC[C@@H](C(N)=O)NC(=O)[C@H](Cc2ccccc2)NC(=O)[C@H](CO)NC1=O` (HELM PEPTIDE1{[N[C@@H](CCS[*:3])C(=O)[*:2]].A.D.G.P.T.L.R.E.W.I.S.F.C.[am]}$PEPTIDE1,PEPTIDE1,1:R3-14:R3$$$V2.0), the EC50 (in assay [1] (setting [2]); on TPO receptor (setting [3])) was less than 500 nM in each case.
Turning to `CC[C@H](C)[C@@H]1NC(=O)[C@H](Cc2c[nH]c3ccccc23)NC(=O)[C@H](CCC(=O)O)NC(=O)[C@H](CCCNC(=N)N)NC(=O)[C@H](CC(C)C)NC(=O)[C@H]([C@@H](C)O)NC(=O)[C@@H]2CCCN2C(=O)CNC(=O)[C@H](CC(=O)O)NC(=O)[C@H](C)NC(=O)CSC[C@@H](C(N)=O)NC(=O)[C@H](Cc2ccccc2)NC(=O)[C@H](CO)NC1=O` (HELM PEPTIDE1{[O=C(C[*:3])[*:2]].A.D.G.P.T.L.R.E.W.I.S.F.C.[am]}$PEPTIDE1,PEPTIDE1,1:R3-14:R3$$$V2.0), the EC50 (in assay [1] (setting [2]); at TPO receptor (setting [3])) was less than 500 nM in each case.
With `CC[C@H](C)[C@@H]1NC(=O)[C@H](Cc2c[nH]c3ccccc23)NC(=O)[C@H](CCC(=O)O)NC(=O)[C@H](CCCNC(=N)N)NC(=O)[C@H](CC(C)C)NC(=O)[C@H]([C@@H](C)O)NC(=O)[C@@H]2CCCN2C(=O)CNC(=O)[C@H](CC(=O)O)NC(=O)[C@H](C)NC(=O)[C@@H](N)C(C)(C)SSC(C)(C)[C@@H](C(N)=O)NC(=O)[C@H](Cc2ccccc2)NC(=O)[C@H](CO)NC1=O` (HELM PEPTIDE1{[Pen].A.D.G.P.T.L.R.E.W.I.S.F.[Pen].[am]}$PEPTIDE1,PEPTIDE1,1:R3-14:R3$$$V2.0), the EC50 (in assay [1] (setting [2]); on TPO receptor (setting [3])) was less than 200000 nM throughout.
Turning to `CC[C@H](C)[C@@H]1NC(=O)[C@H](Cc2c[nH]c3ccccc23)NC(=O)[C@H](CCC(=O)O)NC(=O)[C@H](CCCNC(=N)N)NC(=O)[C@H](CC(C)C)NC(=O)[C@H]([C@@H](C)O)NC(=O)[C@@H]2CCCN2C(=O)CNC(=O)[C@H](CC(=O)O)NC(=O)[C@H](C)NC(=O)[C@H](N)CSSC[C@H](C(N)=O)NC(=O)[C@H](Cc2ccccc2)NC(=O)[C@H](CO)NC1=O` (HELM PEPTIDE1{[dC].A.D.G.P.T.L.R.E.W.I.S.F.[dC].[am]}$PEPTIDE1,PEPTIDE1,1:R3-14:R3$$$V2.0), the EC50 (in assay [1] (setting [2]); at TPO receptor (setting [3])) was less than 200000 nM throughout.
`CC[C@@H]1NC(=O)[C@H]([C@@H](C)CC)NC(=O)[C@H](Cc2c[nH]c3ccccc23)NC(=O)[C@H](CCC(=O)O)NC(=O)[C@H](CCCNC(=N)N)NC(=O)[C@H](CC(C)C)NC(=O)[C@H]([C@@H](C)O)NC(=O)[C@@H]2CCCN2C(=O)CNC(=O)[C@H](CC(=O)O)NC(=O)[C@H](C)NC(=O)[C@@H](N)CSSC[C@@H](C(N)=O)NC(=O)[C@H](Cc2ccccc2)NC1=O` [S-Abu] (HELM PEPTIDE1{C.A.D.G.P.T.L.R.E.W.I.[Abu].F.C.[am]}$PEPTIDE1,PEPTIDE1,1:R3-14:R3$$$V2.0; N-terminus and C-terminus assumed): the EC50 in assay [1] (Table 5, substitutions in cyclized compound, read-out: EC50 (nM) Cell Prolif.) is less than 500 nM; in assay [1] (Table 6, read-out: EC50 (nM) Cell Prolif.), less than 500 nM. For the same compound, the half-maximal inhibitory concentration (IC50) at TPO-R is not above 500 nM.
